Data reported in patent publication US7704995B2 (Exelixis, Inc., priority 2003, dated 2010).
Where two headings read alike, the source gives them in different places.

Target: T1, Chk1 (Homo sapiens, UniProt O14757)
T1 construct: purchased Upstate Biotechnology
T1 sequence (O14757 1-476): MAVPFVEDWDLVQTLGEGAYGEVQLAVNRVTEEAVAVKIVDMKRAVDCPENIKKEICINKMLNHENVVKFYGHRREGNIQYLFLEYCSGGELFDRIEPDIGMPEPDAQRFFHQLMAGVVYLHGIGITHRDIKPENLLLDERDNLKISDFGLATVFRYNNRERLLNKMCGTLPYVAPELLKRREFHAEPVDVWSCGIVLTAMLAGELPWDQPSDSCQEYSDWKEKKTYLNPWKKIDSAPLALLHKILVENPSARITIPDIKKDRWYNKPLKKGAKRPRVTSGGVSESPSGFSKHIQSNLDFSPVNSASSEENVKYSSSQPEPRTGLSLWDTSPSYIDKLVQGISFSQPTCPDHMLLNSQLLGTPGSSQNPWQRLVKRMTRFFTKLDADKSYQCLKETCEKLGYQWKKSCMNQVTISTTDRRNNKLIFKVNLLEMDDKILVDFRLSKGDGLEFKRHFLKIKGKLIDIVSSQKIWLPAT
Experiment: Chk1 kinase assay: incorporation of γ-33P ATP into immobilized myelin basic protein
Assay type: biochemical
Details: read-out: Chk1 IC50
Outline: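 Incorporation of γ-33P into myelin basic protein coated on plates was scintillation-counted after 1 h at room temperature, duplicate points. Unlabeled ATP was 10 μM with 10 nM Chk1, 30 μM with 20 nM Chk2; buffer Hepes pH 7.6, MgCl2, DTT, 1% DMSO. Output IC50, optionally converted to Ki.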

[1] = Table 11, Chk1 only, class symbols A-D

| SMILES | IC50 [nM] | IC50 (Table 11, Chk1 only) [nM] | other results |
| --- | --- | --- | --- |
| Nc1ncc(-c2cccc(C(=O)NCc3ccc(-c4cnns4)cc3)c2)nc1C(=O)N[C@H]1CCCNC1 [Example 845, 3-amino-N-[(3S)-piperidin-3-yl]-6-{3-[({[4-(1,2,3-thiadiazol-5-yl)phenyl]methyl}amino)carbonyl]phenyl}pyrazine-2-carboxamide] |  |  | IC50 [1]: < 50 nM |
| Nc1ncc(-c2cccc(C(=O)NCc3cc(F)cc(Br)c3)c2)nc1C(=O)N[C@H]1CCCNC1 [Example 1032, 3-amino-6-[3-({[(3-bromo-5-fluorophenyl)methyl]amino}carbonyl)phenyl]-N-[(3S)-piperidin-3-yl]pyrazine-2-carboxamide] |  |  | IC50 [1]: < 50 nM |
| Nc1ncc(-c2cccc(C(=O)NCc3cc(F)c(F)c(F)c3)c2)nc1C(=O)N[C@H]1CCCNC1 [Example 1028, 3-amino-N-[(3S)-piperidin-3-yl]-6-[3-({[(3,4,5-trifluorophenyl)methyl]amino}carbonyl)phenyl]pyrazine-2-carboxamide] |  |  | IC50 [1]: < 50 nM |
| Nc1ncc(-c2cccc(C(=O)NCc3ccccc3OC(F)(F)F)c2)nc1C(=O)N[C@H]1CCCNC1 [Example 846, 3-amino-N-[(3S)-piperidin-3-yl]-6-(3-{[({2-[(trifluoromethyl)oxy]phenyl}methyl)amino]carbonyl}phenyl)pyrazine-2-carboxamide] |  |  | IC50 [1]: < 50 nM |
| Nc1ncc(-c2cccc(C(=O)NCCN3CCOCC3)c2)nc1C(=O)N[C@H]1CCCNC1 [Example 926, 3-amino-6-(3-{[(2-morpholin-4-ylethyl)amino]carbonyl}phenyl)-N-[(3S)-piperidin-3-yl]pyrazine-2-carboxamide] |  |  | IC50 [1]: 50 to 1000 nM |
| CNC(=O)c1nc(-c2cccc(OCCN3CCC(O)C3)c2)cnc1N (stereo not shown) [Example 177, 3-amino-6-(3-{[2-(3-hydroxypyrrolidin-1-yl)ethyl]oxy}phenyl)-N-methylpyrazine-2-carboxamide] | 1000 to 10000 |  |  |
| CC(C)(C)OC(=O)NCCCNC(=O)c1nc(-c2cccc(C(=O)NCc3ccccc3)c2)cnc1N [Example 612, 1,1-dimethylethyl [3-({[3-amino-6-(3-{[(phenylmethyl)amino]carbonyl}phenyl)pyrazin-2-yl]carbonyl}amino)propyl]carbamate] |  | ≥ 10000 |  |
| CC(C)(C)OC(=O)N1CCC(NC(=O)c2nc(-c3cccc(C(=O)NCc4ccccc4)c3)cnc2N)CC1 [Example 562, 1,1-dimethylethyl 4-({[3-amino-6-(3-{[(phenylmethyl)amino]carbonyl}phenyl)pyrazin-2-yl]carbonyl}amino)piperidine-1-carboxylate] |  | ≥ 10000 |  |
| CNC(=O)c1nc(-c2cccc(C(=O)NCc3ccc(C)c(F)c3F)c2)cnc1N [Example 298, 3-amino-6-[3-({[(2,3-difluoro-4-methylphenyl)methyl]amino}carbonyl)phenyl]-N-methylpyrazine-2-carboxamide] | 50 to 1000 |  |  |
| Nc1ncc(-c2cccc(C(=O)N[C@@H]3c4ccccc4C[C@@H]3O)c2)nc1C(=O)NC1CCCNC1 (stereo partly drawn) [Example 766, 3-amino-6-[3-({[(1R,2S)-2-hydroxy-2,3-dihydro-1H-inden-1-yl]amino}carbonyl)phenyl]-N-piperidin-3-ylpyrazine-2-carboxamide] |  | < 50 |  |
| CNC(=O)c1nc(-c2cccc(C(=O)NCc3ccc(S(C)(=O)=O)cc3)c2)cnc1N [Example 255, 3-amino-N-methyl-6-{3-[({[4-(methylsulfonyl)phenyl]methyl}amino)carbonyl]phenyl}pyrazine-2-carboxamide] | 50 to 1000 |  |  |
| CNC(=O)c1nc(-c2cccc(C(=O)NCC3CC3)c2)cnc1N [Example 219, 3-amino-6-(3-{[(cyclopropylmethyl)amino]carbonyl}phenyl)-N-methylpyrazine-2-carboxamide] | 50 to 1000 |  |  |
| CNC(=O)c1nc(-c2cccc(C(=O)NCc3ccc(C(F)(F)F)cc3)c2)cnc1N [Example 102, 3-amino-N-methyl-6-{3-[({[4-(trifluoromethyl)phenyl]methyl}amino)carbonyl]phenyl}pyrazine-2-carboxamide] | 50 to 1000 |  |  |
| CNC(=O)c1nc(-c2cccc(C(=O)NCc3ccc(OC(F)(F)F)cc3)c2)cnc1N [Example 227, 3-amino-N-methyl-6-(3-{[({4-[(trifluoromethyl)oxy]phenyl}methyl)amino]carbonyl}phenyl)pyrazine-2-carboxamide] | 50 to 1000 |  |  |

Second part, led by results:

| IC50 [nM] | IC50 (Table 11, Chk1 only) [nM] | SMILES | other results |
| --- | --- | --- | --- |
| 50 to 1000 |  | CNC(=O)c1nc(-c2cccc(CNC(=O)c3ccccc3)c2)cnc1N [Example 308, 3-amino-N-methyl-6-(3-{[(phenylcarbonyl)amino]methyl}phenyl)pyrazine-2-carboxamide] |  |
| 50 to 1000 |  | CNC(=O)c1nc(-c2cccc(CNC(=O)Cc3c[nH]c4ccccc34)c2)cnc1N [Example 336, 3-amino-6-(3-{[(1H-indol-3-ylacetyl)amino]methyl}phenyl)-N-methylpyrazine-2-carboxamide] |  |
|  | 50 to 1000 | CNC(=O)c1nc(-c2cccc(CNC3CCc4ccc(Cl)cc43)c2)cnc1N (stereo not shown) [Example 485, 3-amino-6-(3-{[(6-chloro-2,3-dihydro-1H-inden-1-yl)amino]methyl}phenyl)-N-methylpyrazine-2-carboxamide] |  |
|  | 50 to 1000 | CNC(=O)c1nc(-c2cccc(CN[C@H]3CCN(Cc4ccccc4)C3)c2)cnc1N [Example 437, 3-amino-N-methyl-6-[3-({[(3S)-1-(phenylmethyl)pyrrolidin-3-yl]amino}methyl)phenyl]pyrazine-2-carboxamide] |  |
|  | < 50 | Nc1ncc(-c2cccc(C(=O)N[C@H]3CCc4ccccc43)c2)nc1C(=O)NC[C@@H]1CCNC1 [Example 753, 3-amino-6-(3-{[(1S)-2,3-dihydro-1H-inden-1-ylamino]carbonyl}phenyl)-N-[(3R)-pyrrolidin-3-ylmethyl]pyrazine-2-carboxamide] |  |
| 50 to 1000 |  | CNC(=O)c1nc(-c2cccc(C(=O)NCc3ccc(Cl)cc3)c2)cnc1N [Example 98, 3-amino-6-[3-({[(4-chlorophenyl)methyl]amino}carbonyl)phenyl]-N-methylpyrazine-2-carboxamide] |  |
|  | < 50 | CNCCCNC(=O)c1nc(-c2cccc(CN[C@H]3CCc4ccccc43)c2)cnc1N [Example 597, 3-amino-6-(3-{[(1S)-2,3-dihydro-1H-inden-1-ylamino]methyl}phenyl)-N-[3-(methylamino)propyl]pyrazine-2-carboxamide] |  |
|  | 1000 to 10000 | C/C(=N\Nc1nccc(C(F)(F)F)n1)c1nc(-c2cccc(C(=O)NCc3ccccc3)c2)cnc1N [Example 636, 3-(5-amino-6-{(1E)-N-[4-(trifluoromethyl)pyrimidin-2-yl]ethanehydrazonoyl}pyrazin-2-yl)-N-(phenylmethyl)benzamide] |  |
|  | 1000 to 10000 | Nc1ncc(-c2cccc(CN[C@H]3CCc4ccccc43)c2)nc1C(=O)NCCc1ccccc1 [Example 545, 3-amino-6-(3-{[(1S)-2,3-dihydro-1H-inden-1-ylamino]methyl}phenyl)-N-(2-phenylethyl)pyrazine-2-carboxamide] |  |
|  | 50 to 1000 | COC[C@H]1CCCN1/N=C(\C)c1nc(-c2cccc(C(=O)NCc3ccccc3)c2)cnc1N [Example 673, 3-[5-amino-6-((1E)-N-{(2R)-2-[(methyloxy)methyl]pyrrolidin-1-yl}ethanimidoyl)pyrazin-2-yl]-N-(phenylmethyl)benzamide] |  |
|  | < 50 | Nc1ncc(-c2cccc(CN[C@H]3CCc4ccccc43)c2)nc1-c1nc(-c2cccnc2)n[nH]1 [Example 596, 5-(3-{[(1S)-2,3-dihydro-1H-inden-1-ylamino]methyl}phenyl)-3-(3-pyridin-3-yl-1H-1,2,4-triazol-5-yl)pyrazin-2-amine] |  |
|  | ≥ 10000 | CCn1nc(-c2nc(-c3cccc(C(=O)N[C@H]4CCc5ccccc54)c3)cnc2N)nc1C1CCCN(C(=O)OCc2ccccc2)C1 (stereo partly drawn) [Example 722, phenylmethyl 3-{3-[3-amino-6-(3-{[(1S)-2,3-dihydro-1H-inden-1-ylamino]carbonyl}phenyl)pyrazin-2-yl]-1-ethyl-1H-1,2,4-triazol-5-yl}piperidine-1-carboxylate] |  |
|  | ≥ 10000 | C/C(=N\Nc1ccc(C#N)cc1)c1nc(-c2cccc(C(=O)NCc3ccccc3)c2)cnc1N [Example 631, 3-{5-amino-6-[(1E)-N-(4-cyanophenyl)ethanehydrazonoyl]pyrazin-2-yl}-N-(phenylmethyl)benzamide] |  |
| 50 to 1000 |  | CNC(=O)c1nc(-c2cccc(CNCc3cccc(-c4ccccc4)c3)c2)cnc1N [Example 384, 3-amino-6-(3-{[(biphenyl-3-ylmethyl)amino]methyl}phenyl)-N-methylpyrazine-2-carboxamide] |  |
| < 50 |  | CNC(=O)c1nc(-c2cccc(CNCc3cc(Cl)cc(Cl)c3)c2)cnc1N [Example 409, 3-amino-6-[3-({[(3,5-dichlorophenyl)methyl]amino}methyl)phenyl]-N-methylpyrazine-2-carboxamide] |  |
|  | ≥ 10000 | Nc1ncc(-c2cccc(CNC3CCc4ccccc43)c2)nc1C(=O)NCc1ccc2ccccc2c1 (stereo not shown) [Example 532, 3-amino-6-{3-[(2,3-dihydro-1H-inden-1-ylamino)methyl]phenyl}-N-(naphthalen-2-ylmethyl)pyrazine-2-carboxamide] |  |
| 50 to 1000 |  | CNC(=O)c1nc(-c2cncc(C(=O)NCc3ccccc3-c3ccccc3)c2)cnc1N [Example 401, 3-amino-6-(5-{[(biphenyl-2-ylmethyl)amino]carbonyl}pyridin-3-yl)-N-methylpyrazine-2-carboxamide] |  |
